{"source": "patent US20050124554A1", "about": "“Spermidine derivatives for the treatment of chronic neurodegenerative diseases” (priority 2002, published 2005)", "key": {"models of excitotoxicity": {"test_system": "models of excitotoxicity", "details": "Hartley & Choi 1989; cited from earlier work"}, "[1]": {"test_system": "superoxide production in organotypic slice cultures (CA1 pyramidal cell layer)", "assay": "Superoxide production monitored fluorescently with hydroethidine (HEt)", "assay_type": "cell-based, Wistar rat", "details": "10 μM AMPA alone", "description": "Hydroethidine (HEt) has been utilised to fluorescently monitor the production of superoxide in primary neuronal cultures [Bindokas et al., (1996), Carriedo et al. (1998)]. A stock solution of HEt was made was made in N2 sparged DMSO (10 mg ml^−1) which was then aliquoted and stored at −80° C. aliquots were used only once before being discarded. Two separate experimental paradigms were employed to test the effect of L-Arg3,4 on superoxide production in response to either AMPA or NMDA stimulation.\nFor the AMA experiments, organotypic slice cultures were loaded with 1 μg ml^−1 HEt in HEPES buffered salt solution (HSS) (in mM): glucose 10, NaCl 144, KCl 5, HEPES 10, MgCl2 1, CaCl2 2, pH 7.4, for 30 minutes in the dark. All subsequent solutions contained HEt to prevent a decrease in signal due to reporter depletion. Images were acquired once per minute for the duration of the experiment on the same system as described above for assessment of cell death. A 10 minute record of baseline superoxide production was produced before the bathing solution was exchanged for HBSS+BEt containing 10 μM AMPA, again for 10 minutes. As shown previously, stimulation of glutamate receptors with AMPA lead to an increase in superoxide production [Bindokas et al., (1996), Carriedo et al. (1998)]. The bathing solution was then exchanged for HBSS+HEt containing both 10 μM AMPA and 300 μM L-Arg3,4 for 10 minutes to test the effect of L-Arg3,4 on superoxide production. In separate control experiments, 300 μM L-Arg3,4 in HSS was incubated with slices to determine if it affected baseline superoxide production on its own.\nAcquired images from the AMPA experiments were then analysed with the OpenLab image analysis package. A region of interest was drawn around the CA1 pyramidal cell layer because this was the cell layer that produced the largest increase in fluorescence in response to AMPA activation. In each image, within the region of interest, the average pixel value was calculated in arbitrary units (AU) to produce a record of fluorescence intensity values over time. A linear regression was then performed on the data to calculate the rate of superoxide production as change in intensity over time (arbitrary units per minute, AU min^−1) for each of the treatments. Data is presented as mean±s.d. Rates of superoxide production were then compared by ANOVA followed by post-hoc comparisons with Bonferroni corrections with significance indicated as * for P<0.05 and ** for P<0.01."}, "[2]": {"test_system": "acute hippocampal slices (CA1 pyramidal cell layer, Schaffer collateral stimulation)", "assay": "Electrophysiology: evoked field responses / synaptic transmission", "design": "species or system Sprague-Dawley rats", "excerpt": "All animal procedures to produce acute hippocampal slices were approved by the Home Office. Male, 250 g, Sprague-Dawley rats were deeply anaesthetised with halothane and decapitated. The brain was quickly removed, and the hippocampi dissected out and then cut into 300 μm thick transverse slices on a vibratome (Leica, Milton Keynes, UK) in cold cutting solution (in mM: 189 sucrose, 2.5 KCl, 26 NaHCO3, 1.2 NaH2PO4, 10 glucose, 5 MgCl2, 0.1 CaCl2) equilibrated with 5% CO2, 95% O2. Slices were transferred to aCSF (in mM: 10 glucose, 125 NaCl, 5 KCl, 26 NaHCO3, 1 MgCl2, 1.25 NaH2PO4, 2 CaCl2, 10 sucrose) at room temperature, bubbled with 5% CO2 and 95% O2, for at least 1 h before use.\nSlices were then transferred to a submerged perfusion chamber (2 ml volume) for the electrophysiological recordings and were perfused at 10 ml min^−1 at 25° C. with aCSF equilibrated with 5% CO2 and 95% O2, and allowed to equilibrate for 1 h before manipulations were started. Experimental compounds were applied by bath perfusion. L-Arg3,4 was applied at 300 μM and DNQX was applied at 10 μM final concentration. DNQX was diluted from a 40 mM stock in DMSO (final DMSO of 0.025%). The Schaffer collaterals of CA3 were stimulated at voltages from 0 to 30 V with a constant voltage stimulator (Digitimer, Hertfordshire, UK) via a twisted pair stimulating electrode of polyimide coated stainless steel wire (Plastics One, Roanoke, Va.). Field potential responses were recorded with an Axopatch 200B amplifier (Axon Instruments, Foster City, Calif.) in the fast current clamp mode via a 2M KCl filled glass electrode (2-5 MQ) in the CA1 pyramidal cell layer. Responses were filtered at 2 kHz, digitised at 20 kHz with a Digidata 1320A (Axon Instruments), and stored onto hard disk with Clampex 8.1 software (Axon Instruments) running on a Dell Pentium III PC. Data was analysed in Clampfit 8.1 (Axon Instruments).\nStimulus-response (S/R) curves were generated from stimuli from 0 to 30 V in 2 V increments. Bath perfusion of 300 μM L-Arg3,4 in aCSF was applied for 10 min with a sub-maximal stimulus applied every minute to monitor synaptic transmission. A second S/R curve was generated before the perfusion was switched back to plain aCSF. A sub-maximal stimulus was applied every minute during the 15 min wash period after which a third SIR curve was generated. Perfusion of 10 μM DNQX was then started until the response to the sub-maximal stimulus was completely eliminated which always occurred within 10 min. […] In Clampfit, S/R curves were fit to a sigmoidal function of the form: [formula] where R is the magnitude of the evoked response, Rmax is the maximum response, V50 is the voltage which produces a half maximal response, S is the stimulus voltage, and m is proportional to the slope of the linear region of the sigmoid. Data was compared by one way ANOVA."}}, "note": "Where “and” joins values, the source holds several entries; their conditions need not be identical. Identical values can stand only once.", "data": [{"smiles": "C[C@]12N[C@H](Cc3ccccc31)c1ccccc12", "note": "[MK-801]", "values": [{"measurement": "delay of administration at which effectiveness is lost (therapeutic window)", "setting": "models of excitotoxicity", "value": "30 min and 15 min"}]}, {"smiles": "N[C@H](CCCP(=O)(O)O)C(=O)O", "note": "[D-APV]", "values": [{"measurement": "delay of administration at which effectiveness is lost (therapeutic window)", "setting": "models of excitotoxicity", "value": 30, "unit": "min"}]}, {"smiles": "COc1ccc2c(c1)[C@]13CCCC[C@@H]1[C@H](C2)N(C)CC3", "note": "[dextromethorphan]", "values": [{"measurement": "delay of administration at which effectiveness is lost (therapeutic window)", "setting": "models of excitotoxicity", "value": 30, "unit": "min"}]}, {"smiles": "Cc1o[nH]c(=O)c1CC(N)C(=O)O", "note": "(centres unmarked) [AMPA, reference compound]", "values": [{"measurement": "increase of rate of superoxide production over baseline", "setting": "[1]", "value": "approximately 5 fold"}, {"measurement": "rate of superoxide production", "setting": "[1]", "value": "10.65±3.70", "unit": "AU min-1"}]}, {"smiles": "O=c1[nH]c2cc([N+](=O)[O-])c([N+](=O)[O-])cc2[nH]c1=O", "note": "[DNQX, 6,7-Dinitroquinoxaline-2,3(1H,4H)-dione, reference compound]", "values": [{"measurement": "time to complete elimination of response / synaptic transmission", "setting": "[2]; 10 μM, all slices", "value": "≤ 10", "unit": "min"}, {"measurement": "time to elimination of all transmission", "setting": "[2]; 10 μM, single slice, sub-maximal stimulus", "value": "≤ 5", "unit": "min"}, {"measurement": "effect on evoked responses", "setting": "[2]; bath application, L-Arg3,4 300 μM, DNQX 10 μM", "value": "blocked the evoked response completely"}]}]}
